This note sets out measurements from US8148373B2, “Compounds” (AstraZeneca AB, priority 2008, dated 2012).

SMILES strings stand for the structures. Structures can show the parent of a compound that is named as a salt.

Test [1] deals with T1, Adrenergic β2 (H292 cells) (Homo sapiens, UniProt P07550).
T1 construct: endogenous in cells; host or cells: H292 cells
Nature of the test: Assay for Adrenergic β2 Mediated cAMP Production (concentration response, AlphaScreen cAMP detection). Format: cell-based. The note with it: for EC50: cAMP production, 60 minutes at room temperature, 300 μM rolipram, read-out: β2 pEC50 (converted); for β2 Intrinsic activity: fraction relative to the maximum activity determined for formoterol. How it is done: Assay for Adrenergic β2 Mediated Camp Production
H292 cells are grown in 225 cm2 flasks incubator at 37° C., 5% CO2 in RPMI medium containing 10% (v/v) FBS (foetal bovine serum) and 2 mM L-glutamine.
Adherent H292 cells are removed from tissue culture flasks by treatment with Accutase™ cell detachment solution for 15 minutes. Flasks are incubated for 15 minutes in a humidified incubator at 37° C., 5% CO2. Detached cells are re-suspended in RPMI media (containing 10% (v/v) FBS and 2 mM L-glutamine) at 0.1×10^6 cells per mL. 10000 cells in 100 μL are added to each well of a tissue-culture-treated 96-well plate and the cells incubated overnight in a humidified incubator at 37° C., 5% CO2. The culture media is removed and cells are washed twice with 100 μL assay buffer and replaced with 50 μL assay buffer (HBSS solution containing 10 mM HEPES pH7.4 and 5 mM glucose). Cells are rested at room temperature for 20 minutes after which time 25 μL of rolipram (1.2 mM made up in assay buffer containing 2.4% (v/v) dimethylsulphoxide) is added. Cells are incubated with rolipram for 10 minutes after which time test compounds are added and the cells are incubated for 60 minutes at room temperature. The final rolipram concentration in the assay is 300 μM and final vehicle concentration is 1% (v/v) dimethylsulphoxide. The reaction is stopped by removing supernatants, washing once with 100 μL assay buffer and replacing with 50 μL lysis buffer. The cell monolayer is frozen at −80° C. for 30 minutes (or overnight).
AlphaScreen™ cAMP Detection
The concentration of cAMP (cyclic adenosine monophosphate) in the cell lysate is determined using AlphaScreen™ methodology. The frozen cell plate is thawed for 20 minutes on a plate shaker then 10 μL of the cell lysate is transferred to a 96-well white plate. 40 μL of mixed AlphaScreen™ detection beads pre-incubated with biotinylated cAMP, is added to each well and the plate incubated at room temperature for 3 hours in the dark. The AlphaScreen™ signal is measured using an EnVision spectrophotometer (Perkin-Elmer Inc.) with the recommended manufacturer's settings. cAMP concentrations are determined by reference to a calibration curve determined in the same experiment using standard cAMP concentrations. Concentration response curves for agonists are constructed and data is fitted to a four parameter logistic equation to determine both the pEC50 and Intrinsic Activity. Intrinsic Activity is expressed as a fraction relative to the maximum activity determined for formoterol in each experiment.

Test [2] has as its target T2, human muscarinic acetylcholine M3 receptor (M3-ACh) (Homo sapiens, UniProt P20309).
T2 construct: expressed in transfected cells; host or cells: CHO-K1 (Chinese Hamster Ovary) cell membranes
As to the kind of experiment: Muscarinic 3 Receptor Binding Assay ([3H]NMS competition, SPA). Particulars: [3H]NMS 0.1 nM, CHO-K1 cell membranes, 16 hours at room temperature; read-out: M3 pIC50 (converted). How it is done: Muscarinic 3 Receptor Binding Assay
The affinity (pIC50) of compounds binding to the M3 receptor is determined by competition binding of [^3H]N-methyl scopolamine (NMS) to CHO-K1 (Chinese Hamster Ovary) cell membranes expressing the human muscarinic acetylcholine M3 receptor (M3-ACh) in a scintillation proximity assay (SPA) format.
SPA beads are precoated with membranes and then incubated at 2 mg of beads per well with serial dilutions of compounds of the invention, [^3H]NMS at 0.1 nM, quarter Kd (experimentally determined dissociation constant) and assay buffer (20 mM HEPES pH 7.4 containing 5 mM MgCl2). The assay is conducted in a final volume of 200 μL, in the presence of 1% (v/v) dimethyl sulphoxide (DMSO). Total binding of [^3H]NMS is determined in the absence of competing compound and non-specific binding of [^3H]NMS is determined in the presence of 1 μM atropine. The plates are incubated for 16 hours at room temperature and then read on Wallac Microbeta™ using a normalised ^3H protocol. The pIC50, defined as the negative logarithm of the molar concentration of compound required for 50% reduction in specific [^3H]-NMS binding, is determined.

T2 sequence (P20309 whole entry): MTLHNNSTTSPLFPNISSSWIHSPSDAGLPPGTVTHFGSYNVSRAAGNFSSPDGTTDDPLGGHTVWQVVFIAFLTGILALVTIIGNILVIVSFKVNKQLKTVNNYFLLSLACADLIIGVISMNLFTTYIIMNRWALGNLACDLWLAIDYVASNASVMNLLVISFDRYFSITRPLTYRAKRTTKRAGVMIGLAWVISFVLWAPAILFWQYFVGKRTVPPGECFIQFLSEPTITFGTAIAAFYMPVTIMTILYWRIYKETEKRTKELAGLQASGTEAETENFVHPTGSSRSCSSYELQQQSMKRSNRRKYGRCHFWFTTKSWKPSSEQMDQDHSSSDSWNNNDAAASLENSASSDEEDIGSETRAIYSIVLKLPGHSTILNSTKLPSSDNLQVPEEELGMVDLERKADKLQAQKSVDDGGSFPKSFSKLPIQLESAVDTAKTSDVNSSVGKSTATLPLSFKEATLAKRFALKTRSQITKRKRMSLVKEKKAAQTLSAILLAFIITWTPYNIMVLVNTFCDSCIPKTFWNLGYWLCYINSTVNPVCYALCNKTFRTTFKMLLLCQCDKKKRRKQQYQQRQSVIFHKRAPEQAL
T1 sequence (P07550 whole entry): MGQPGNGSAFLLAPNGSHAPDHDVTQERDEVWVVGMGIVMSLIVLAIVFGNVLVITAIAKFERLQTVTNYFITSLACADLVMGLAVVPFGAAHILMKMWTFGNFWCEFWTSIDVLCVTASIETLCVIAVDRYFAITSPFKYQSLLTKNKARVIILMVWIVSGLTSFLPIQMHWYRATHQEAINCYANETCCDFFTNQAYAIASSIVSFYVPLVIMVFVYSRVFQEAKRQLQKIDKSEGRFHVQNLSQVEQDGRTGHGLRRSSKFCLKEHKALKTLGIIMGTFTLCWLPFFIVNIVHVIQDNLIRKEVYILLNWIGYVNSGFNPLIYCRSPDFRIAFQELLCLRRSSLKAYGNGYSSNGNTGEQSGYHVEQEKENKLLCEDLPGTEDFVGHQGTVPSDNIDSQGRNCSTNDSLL

As for `Cc1ccc(C(=O)N2CCOC3(CCN(Cc4cc(CCNC[C@H](O)c5ccc(O)c6[nH]c(=O)sc56)cs4)CC3)C2)s1` [Example 27, (R)-4-Hydroxy-7-(1-hydroxy-2-(2-(5-((4-(5-methylthiophene-2-carbonyl)-1-oxa-4,9-diazaspiro[5.5]undecan-9-yl)methyl)thiophen-3-yl)ethylamino)ethyl)benzo[d]thiazol-2(3H)-one ditrifluoroacetate], in test [1], the EC50 was 1.26 nM and the “β2 Intrinsic activity” value is given as 1. The IC50 in test [2] is 2.51 nM.

For the molecule `Cc1ccc(C(=O)N2CCOC3(CCN(CCc4cccc(CNC[C@H](O)c5ccc(O)c6[nH]c(=O)sc56)c4)CC3)C2)s1` [Example 20, (R)-4-Hydroxy-7-(1-hydroxy-2-(3-(2-(4-(5-methylthiophene-2-carbonyl)-1-oxa-4,9-diazaspiro[5.5]undecan-9-yl)ethyl)benzylamino)ethyl)benzo[d]thiazol-2(3H)-one ditrifluoroacetate], in test [1], the EC50 is 200 nM and the “β2 Intrinsic activity” value came to 0.8. Besides, in test [2], the IC50 was 31.6 nM.

Consider `Cc1nc(C(=O)N2CCOC3(CCN(CCc4ccc(CNC[C@H](O)c5ccc(O)c6[nH]c(=O)ccc56)s4)CC3)C2)cs1` [Example 98, (R)-8-Hydroxy-5-(1-hydroxy-2-((5-(2-(4-(2-methylthiazole-4-carbonyl)-1-oxa-4,9-diazaspiro[5.5]undecan-9-yl)ethyl)thiophen-2-yl)methylamino)ethyl)quinolin-2(1H)-one ditrifluoroacetate], for which, in test [1], the EC50 was 2000 nM and the “β2 Intrinsic activity” value is recorded as 0.4. Moreover, the IC50 in test [2] is 1.26 nM.

Take `CC(C)c1nc(C(=O)N2CCOC3(CCN(CCCCCC(C)(C)CNC[C@H](O)c4ccc(O)c5[nH]c(=O)sc45)CC3)C2)cs1` [Example 102, (R)-4-Hydroxy-7-(1-hydroxy-2-(7-(4-(2-isopropylthiazole-4-carbonyl)-1-oxa-4,9-diazaspiro[5.5]undecan-9-yl)-2,2-dimethylheptylamino)ethyl)benzo[d]thiazol-2(3H)-one formate]: in test [1], the EC50 was 200 nM and the “β2 Intrinsic activity” value is 0.9. The IC50 in test [2] was 1 nM.

Regarding `CC(C)c1cccc(C(=O)N2CCOC3(CCN(Cc4cccc(CCNC[C@H](O)c5ccc(O)c6[nH]c(=O)sc56)c4F)CC3)C2)n1` [Example 85, (R)-7-(2-(2-Fluoro-3-((4-(6-isopropylpicolinoyl)-1-oxa-4,9-diazaspiro[5.5]undecan-9-yl)methyl)phenethylamino)-1-hydroxyethyl)-4-hydroxybenzo[d]thiazol-2(3H)-one ditrifluoroacetate], in test [1], the EC50 is 7.94 nM and the “β2 Intrinsic activity” value is on record as 0.8. Moreover, in test [2], the IC50 is 50.1 nM.

Turning to `COC(=O)c1ccc(C(=O)N2CCOC3(CCN(Cc4cccc(CCNC[C@H](O)c5ccc(O)c6[nH]c(=O)ccc56)c4)CC3)C2)s1` [Example 31, (R)-Methyl 5-(9-(3-(2-(2-hydroxy-2-(8-hydroxy-2-oxo-1,2-dihydroquinolin-5-yl)ethylamino)ethyl)benzyl)-1-oxa-4,9-diazaspiro[5.5]undecane-4-carbonyl)thiophene-2-carboxylate ditrifluoroacetate], in test [1], the EC50 is 5.01 nM and the “β2 Intrinsic activity” value is 0.9. The IC50 in test [2] was 63.1 nM.

On to `Cc1ccc(S(=O)(=O)N2CCOC3(CCN(Cc4cc(F)cc(CCNC[C@H](O)c5ccc(O)c6[nH]c(=O)sc56)c4)CC3)C2)s1` [Example 63, (R)-7-(2-(3-Fluoro-5-((4-(5-methylthiophen-2-ylsulfonyl)-1-oxa-4,9-diazaspiro[5.5]undecan-9-yl)methyl)phenethylamino)-1-hydroxyethyl)-4-hydroxybenzo[d]thiazol-2(3H)-one ditrifluoroacetate], for which, in test [1], the EC50 was 5.01 nM and the “β2 Intrinsic activity” value came to 1. The IC50 in test [2] was over 1000 nM.

For the molecule `O=C(c1csc(C2CC2)n1)N1CCOC2(CCN(Cc3cc(F)cc(CCNC[C@H](O)c4ccc(O)c5[nH]c(=O)sc45)c3)CC2)C1` [Example 57, (R)-7-(2-(3-((4-(2-Cyclopropylthiazole-4-carbonyl)-1-oxa-4,9-diazaspiro[5.5]undecan-9-yl)methyl)-5-fluorophenethylamino)-1-hydroxyethyl)-4-hydroxybenzo[d]thiazol-2(3H)-one ditrifluoroacetate], in test [1], the EC50 is 6.31 nM and the “β2 Intrinsic activity” value is reported as 1.1. For the same molecule, in test [2], the IC50 is 0.794 nM.

On to `CC(C)c1nc(C(=O)N2CCOC3(CCN(CCCCCCCCCNC[C@H](O)c4ccc(O)c5[nH]c(=O)sc45)CC3)C2)cs1` [Example 109, (R)-4-Hydroxy-7-(1-hydroxy-2-(9-(4-(2-isopropylthiazole-4-carbonyl)-1-oxa-4,9-diazaspiro[5.5]undecan-9-yl)nonylamino)ethyl)benzo[d]thiazol-2(3H)-one formate], for which, in test [1], the EC50 was 7.94 nM and the “β2 Intrinsic activity” value is on record as 0.9. In test [2], the IC50 is 0.2 nM.

For the molecule `CCCCc1nc(C(=O)N2CCOC3(CCN(Cc4cccc(CCNC[C@H](O)c5ccc(O)c6[nH]c(=O)sc56)c4F)CC3)C2)cs1` [Example 78, (R)-7-(2-(3-((4-(2-Butylthiazole-4-carbonyl)-1-oxa-4,9-diazaspiro[5.5]undecan-9-yl)methyl)-2-fluorophenethylamino)-1-hydroxyethyl)-4-hydroxybenzo[d]thiazol-2(3H)-one ditrifluoroacetate], in test [1], the EC50 is 15.8 nM and the “β2 Intrinsic activity” value was 0.9. The IC50 in test [2] is 10 nM.

Consider `Cc1ccc(C(=O)N2CCOC3(CCN(CCCCCCCCCNC[C@H](O)c4ccc(O)c5[nH]c(=O)sc45)CC3)C2)s1` [Example 111, (R)-4-Hydroxy-7-(1-hydroxy-2-(9-(4-(5-methylthiophene-2-carbonyl)-1-oxa-4,9-diazaspiro[5.5]undecan-9-yl)nonylamino)ethyl)benzo[d]thiazol-2(3H)-one formate], for which, in test [1], the EC50 is 31.6 nM and the “β2 Intrinsic activity” value came out at 0.8. The IC50 in test [2] is 0.794 nM.

As to `O=C(c1csc(C(F)(F)F)n1)N1CCOC2(CCN(Cc3cccc(CCNC[C@H](O)c4ccc(O)c5[nH]c(=O)ccc45)c3)CC2)C1` [Example 25, (R)-8-Hydroxy-5-(1-hydroxy-2-(3-((4-(2-(trifluoromethyl)thiazole-4-carbonyl)-1-oxa-4,9-diazaspiro[5.5]undecan-9-yl)methyl)phenethylamino)ethyl)quinolin-2(1H)-one ditrifluoroacetate], in test [1], the EC50 was 15.8 nM and the “β2 Intrinsic activity” value worked out at 0.8. Moreover, in test [2], the IC50 is 1 nM.

`CC(C)c1cnc(C(=O)N2CCOC3(CCN(Cc4cc(F)cc(CCNC[C@H](O)c5ccc(O)c6[nH]c(=O)sc56)c4)CC3)C2)s1` [Example 54, (R)-7-(2-(3-Fluoro-5-((4-(5-isopropylthiazole-2-carbonyl)-1-oxa-4,9-diazaspiro[5.5]undecan-9-yl)methyl)phenethylamino)-1-hydroxyethyl)-4-hydroxybenzo[d]thiazol-2(3H)-one ditrifluoroacetate]: in test [1], the EC50 is 6.31 nM and the “β2 Intrinsic activity” value was 0.9. Further, the IC50 in test [2] is 200 nM.
